Here are results for 39 compounds from the OPERA property sets (Mansouri et al. 2018).

`CC1=CC(=O)C(C(C)C)CC1` (centres undefined) gave a logP of 2.85. To `CC=Cc1ccc(O)c(OC)c1` belongs 3.04. In the case of `C=CC(C)(CCC=C(C)C)OC(C)=O` (centres undefined) it was 3.93; in that of `Cc1ccc(C(C)C)cc1O`, 3.49; in that of `C=C(C)C1CCC2(C)OC2C1` (centres undefined), 3.2.

In turn, `CC1(C)C2CC=C(C=O)C1C2` (centres undefined) registered a logP of 2.98. To `CC1(C)[C@@H]2CC[C@@]1(C)[C@H](O)C2` belongs 3.24. Regarding `CC(=O)OC1CC(C)CCC1C(C)C` (racemic), the logP is 4. To `C=C1CCC2CC1C2(C)C` (centres undefined) belongs 4.16; to `CC1(C)C2CC=C(CO)C1C2` (centres undefined), 3.22. In the case of `CC(=O)OC(C)(C)C1CC=C(C)CC1` (centres undefined) it was 3.96; in that of `CC1=CCC(O)(C(C)C)CC1` (centres undefined), 3.26. `CC(C)=C1CC[C@@H](C)CC1=O` had a lipophilicity (logP) of 3.08. In the case of `C=C1[C@H]2CC[C@H](C2)C1(C)C` it was 4.22; in that of `CC1=CC(O)C2CC1C2(C)C` (centres undefined), 3.16. In the case of `C=C(C)C1CC=C(C)C(O)C1` (centres undefined), the logP worked out at 3.12. To `CC(C)[C@@H]1CC[C@@H](C)CC1=O` belongs 3.05; to `CC12CCC(CC1)C(C)(C)O2`, 2.74; to `CC1CCC(C(C)C)C(O)C1` (centres undefined), 3.4. To `CC1=CC=C(C(C)C)CC1` belongs 4.25; to `C=C(C)[C@@H]1CC=C(C=O)CC1`, 3.13; to `CC(=O)/C=C/C1C(C)=CCCC1(C)C` (centres undefined), 3.85. As for `CC1=CCC2C(C1)C2(C)C` (centres undefined), the logP was 4.38. Take `CC1=CC2C(CC1)C2(C)C` (centres undefined): the logP stood at 4.44. In the case of `C=C(C)C1CCC(C)C(O)C1` (centres undefined) it was 3.21; in that of `C=C(C)[C@@H]1CC=C(C)C(=O)C1`, 2.71; in that of `CC1(C)[C@H]2CC[C@](C)(C2)[C@H]1O`, 3.17. In the case of `CC1=CCC(C(C)(C)O)C[C@@H]1O` (some centres undefined) it was 1.81; in that of `C=CC1(C)CCC(C(C)(C)O)O1` (centres undefined), 2.43. With `CC(=O)OC/C=C(\C)CCC=C(C)C`, the logP is 4.04.

`CC(C)C12CCC(C)(CC1)O2` gave a logP of 2.97. To `CC12CCC(C1)C(C)(C)C2=O` (centres undefined) belongs 3.52; to `CC1=CCC2C(C1=O)C2(C)C` (centres undefined), 2.42; to `CC1=CC(=O)[C@H]2C[C@@H]1C2(C)C`, 2.23. To `CC(C)=CCC[C@@H](C)CC=O` belongs 3.83. In the case of `C=C(C)C1CC=C(CO)CC1` (centres undefined) it was 3.17; in that of `C=C(C)C1CCC(C)C(=O)C1` (centres undefined), 2.85. `CC(C)=CCC/C(C)=C/CO`: the logP was determined as 3.56. `CC1(C)C2CCC(CN)C1C2` (centres undefined) yielded a logP of 2.05.
